# Data as given in ChEMBL document CHEMBL5321202, “Design, synthesis and anti-AD effects of dual inhibitor targeting glutaminyl cyclase/GSK-3β” (Eur J Med Chem, 2023).
# Activity calls are given as the source filed them. The calls are words filed in the database; no cut-off is given here.
# Species: Mus musculus
# Conditions: dose 8.0 mg/kg, route ip, time 45.0 day
row,Structure (SMILES),inhibition
1,O=C1NC(=O)C(c2cn(CCCn3ccnc3)c3ccccc23)=C1c1ccc(F)cc1,Active

# Molecular target: Glutaminyl-peptide cyclotransferase (Homo sapiens, UniProt Q16769)
# Sequence (Q16769 whole entry): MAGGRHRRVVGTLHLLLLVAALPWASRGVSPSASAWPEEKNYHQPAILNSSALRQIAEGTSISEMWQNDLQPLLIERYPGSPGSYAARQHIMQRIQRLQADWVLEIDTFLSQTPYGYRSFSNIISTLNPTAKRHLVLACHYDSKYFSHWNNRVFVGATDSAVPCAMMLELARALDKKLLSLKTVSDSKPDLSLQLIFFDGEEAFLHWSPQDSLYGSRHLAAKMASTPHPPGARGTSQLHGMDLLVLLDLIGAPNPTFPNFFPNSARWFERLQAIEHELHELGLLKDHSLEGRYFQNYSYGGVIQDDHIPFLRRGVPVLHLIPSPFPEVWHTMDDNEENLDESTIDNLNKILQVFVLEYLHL
# Test: Inhibition of human glutaminyl cyclase activity assessed as fluorescence using H-Gln-AMC substrate
# Conditions: not given
row,Structure (SMILES),IC50 [µM]
1,O=C1NC(=O)C(c2cn(CCCn3ccnc3)c3ccccc23)=C1c1ccccc1,2.8
2,Cc1ccc(C2=C(c3cn(CCCn4ccnc4)c4ccc(Br)cc34)C(=O)NC2=O)cc1,2.08
3,COc1ccc(C2=C(c3cn(CCCn4ccnc4)c4ccc(Br)cc34)C(=O)NC2=O)cc1,2.33
4,O=C1NC(=O)C(c2cn(CCCn3ccnc3)c3ccccc23)=C1c1ccc(F)cc1,1.34
5,CC(C)(C)c1ccc(C2=C(c3cn(CCCn4ccnc4)c4ccc(Br)cc34)C(=O)NC2=O)cc1,8.17
6,COc1ccc2c(c1)c(C1=C(c3ccc(F)cc3)C(=O)NC1=O)cn2CCCn1ccnc1,0.36
7,COc1ccc(C2=C(c3cn(CCCn4ccnc4)c4ccc(C)cc34)C(=O)NC2=O)cc1,6.13
8,O=C1NC(=O)C(c2cn(CCCn3ccnc3)c3ccc(Br)cc23)=C1c1ccc2ccccc2c1,2.98
9,COc1ccc(C2=C(c3cn(CCCn4ccnc4)c4cc(C)ccc34)C(=O)NC2=O)cc1,7.01
10,COc1ccccc1C1=C(c2cn(CCCn3ccnc3)c3ccccc23)C(=O)NC1=O,7.32
11,O=C1NC(=O)C(c2cn(CCCn3ccnc3)c3ccccc23)=C1c1ccccc1[N+](=O)[O-],2.26
12,Cc1ccc2c(C3=C(c4ccccc4[N+](=O)[O-])C(=O)NC3=O)cn(CCCn3ccnc3)c2c1,69.1
13,COc1ccc(C2=C(c3cn(CCCn4ccnc4)c4ccc(Br)cc34)C(=O)NC2=O)cc1OC,3.16
14,O=C1NC(=O)C(c2cn(CCCn3ccnc3)c3ccc(Br)cc23)=C1c1cccs1,1.04
15,COc1ccc(C2=C(c3cn(CCCn4ccnc4)c4ccc(OC)cc34)C(=O)NC2=O)cc1,5.9
16,Cc1ccc2c(c1)c(C1=C(c3ccccc3C)C(=O)NC1=O)cn2CCCn1ccnc1,3.84
17,O=C1NC(=O)C(c2cn(CCCn3ccnc3)c3ccccc23)=C1c1ccc2ccccc2c1,3.51
18,COc1ccc2c(c1)c(C1=C(c3ccccc3C)C(=O)NC1=O)cn2CCCn1ccnc1,4.34
19,O=C1NC(=O)C(c2cn(CCCn3ccnc3)c3cc(Br)ccc23)=C1c1ccc2ccccc2c1,3.98
20,O=C1NC(=O)C(c2cn(CCCn3ccnc3)c3cc(Br)ccc23)=C1c1ccc(F)cc1,2.81
21,Cc1ccccc1C1=C(c2cn(CCCn3ccnc3)c3ccc(Br)cc23)C(=O)NC1=O,5.12
22,O=C1NC(=O)C(c2cn(CCCn3ccnc3)c3cc(Br)ccc23)=C1c1ccccc1F,4.77
23,Cc1ccccc1C1=C(c2cn(CCCn3ccnc3)c3cc(Br)ccc23)C(=O)NC1=O,3.85
24,Cc1ccc2c(c1)c(C1=C(c3ccccc3F)C(=O)NC1=O)cn2CCCn1ccnc1,3.39
25,O=C1NC(=O)C(c2cn(CCCn3ccnc3)c3ccc(Br)cc23)=C1c1ccc2c(c1)OCO2,2.51
26,COc1ccccc1C1=C(c2cn(CCCn3ccnc3)c3ccc(C)cc23)C(=O)NC1=O,8.12
27,COc1ccc2c(c1)c(C1=C(c3ccccc3F)C(=O)NC1=O)cn2CCCn1ccnc1,3.65

row,Structure (SMILES),IC50 [µM]
1,Cc1ccc(C2=C(c3cn(CCCn4ccnc4)c4cc(C)ccc34)C(=O)NC2=O)cc1,11.9
2,COc1ccc(C2=C(c3cn(CCCn4ccnc4)c4cc(Br)ccc34)C(=O)NC2=O)cc1,2.59
3,Cc1ccc(C2=C(c3cn(CCCn4ccnc4)c4ccccc34)C(=O)NC2=O)cc1,4.34
4,Cc1ccc2c(c1)c(C1=C(c3ccc(F)cc3)C(=O)NC1=O)cn2CCCn1ccnc1,4.36
5,Cc1ccc(C2=C(c3cn(CCCn4ccnc4)c4ccc(C)cc34)C(=O)NC2=O)cc1,5.47
6,Cc1ccc(C2=C(c3cn(CCCn4ccnc4)c4cc(Br)ccc34)C(=O)NC2=O)cc1,3.44
7,O=C1NC(=O)C(c2cn(CCCn3ccnc3)c3ccccc23)=C1c1c[nH]c2ccccc12,4.27
8,COc1ccc2c(c1)c(C1=C(c3ccc(C)cc3)C(=O)NC1=O)cn2CCCn1ccnc1,9
9,O=C1NC(=O)C(c2cn(CCCn3ccnc3)c3ccc(Br)cc23)=C1c1ccccc1[N+](=O)[O-],4.28
10,O=C1NC(=O)C(c2cn(CCCn3ccnc3)c3ccc(Br)cc23)=C1c1ccccc1F,4.7
11,O=C1NC(=O)C(c2cn(CCCn3ccnc3)c3ccc(Br)cc23)=C1c1cc(F)c(F)cc1F,2.35
12,Cc1ccc2c(C3=C(c4ccc5ccccc5c4)C(=O)NC3=O)cn(CCCn3ccnc3)c2c1,10.8
13,O=C1NC(=O)C(c2cn(CCCn3ccnc3)c3ccc(Br)cc23)=C1c1ccc(F)cc1,2.55
14,O=C1NC(=O)C(c2cn(CCCn3ccnc3)c3ccc(Br)cc23)=C1c1ccccc1,1.76
15,Cc1ccccc1C1=C(c2cn(CCCn3ccnc3)c3ccccc23)C(=O)NC1=O,4.18
16,COc1ccc2c(c1)c(C1=C(c3ccc4ccccc4c3)C(=O)NC1=O)cn2CCCn1ccnc1,4.97
17,COc1ccccc1C1=C(c2cn(CCCn3ccnc3)c3ccc(Br)cc23)C(=O)NC1=O,6.62
18,Cc1ccc2c(c1)c(C1=C(c3ccccc3[N+](=O)[O-])C(=O)NC1=O)cn2CCCn1ccnc1,3.62
19,COc1ccccc1C1=C(c2cn(CCCn3ccnc3)c3cc(Br)ccc23)C(=O)NC1=O,21.7
20,Cc1ccc2c(c1)c(C1=C(c3ccc4ccccc4c3)C(=O)NC1=O)cn2CCCn1ccnc1,3.44
21,COc1ccc(C2=C(c3cn(CCCn4ccnc4)c4ccccc34)C(=O)NC2=O)cc1,7.46
22,COc1ccc2c(c1)c(C1=C(c3ccccc3OC)C(=O)NC1=O)cn2CCCn1ccnc1,2.44
23,O=C1NC(=O)C(c2cn(CCCn3ccnc3)c3ccccc23)=C1c1ccccc1F,2.37
24,COc1ccc2c(c1)c(C1=C(c3ccccc3[N+](=O)[O-])C(=O)NC1=O)cn2CCCn1ccnc1,9.91
25,Cc1cc(C)c(C2=C(c3cn(CCCn4ccnc4)c4ccc(Br)cc34)C(=O)NC2=O)c(C)c1,2.34
26,O=C1NC(=O)C(c2cn(CCCn3ccnc3)c3ccc(Br)cc23)=C1c1cc(C(F)(F)F)cc(C(F)(F)F)c1,6.88
27,COc1ccc2c(C3=C(c4ccccc4F)C(=O)NC3=O)cn(CCCn3ccnc3)c2c1,10.8

# Tested on: not listed separately
# Test: In vivo inhibition of GSK3beta activity in cortex region of 3 x Tg-AD mouse model at 8 mg/kg, ip every 48 hrs once for 45 days by Western blot analysis relative to control
# Type: functional
# Set-up: scale not given: the % may be the effect or the level left
# Conditions: time 45 day
row,Structure (SMILES),Activity [%]
1,O=C1NC(=O)C(c2cn(CCCn3ccnc3)c3ccccc23)=C1c1ccc(F)cc1,73.4

# Molecular target: Glycogen synthase kinase-3 beta (Homo sapiens, UniProt P49841)
# Sequence (P49841 whole entry): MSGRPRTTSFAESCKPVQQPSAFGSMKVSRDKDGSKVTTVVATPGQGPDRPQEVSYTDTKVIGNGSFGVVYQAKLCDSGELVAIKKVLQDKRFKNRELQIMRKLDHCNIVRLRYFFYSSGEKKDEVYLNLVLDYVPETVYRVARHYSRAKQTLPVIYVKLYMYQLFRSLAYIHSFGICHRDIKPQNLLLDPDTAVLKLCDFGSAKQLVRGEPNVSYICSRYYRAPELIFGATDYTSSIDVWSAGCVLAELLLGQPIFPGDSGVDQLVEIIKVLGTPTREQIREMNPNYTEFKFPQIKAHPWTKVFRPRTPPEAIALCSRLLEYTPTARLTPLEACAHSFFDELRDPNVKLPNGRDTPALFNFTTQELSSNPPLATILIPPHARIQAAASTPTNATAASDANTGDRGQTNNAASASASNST
# Test: Inhibition of GSK3beta (unknown origin) activity assessed as fluorescence intensity by ADP-Glo Kinase Assay
# Conditions: not given
row,Structure (SMILES),IC50 [µM]
1,O=C1NC(=O)C(c2cn(CCCn3ccnc3)c3ccccc23)=C1c1ccccc1,0.014
2,Cc1ccc(C2=C(c3cn(CCCn4ccnc4)c4ccc(Br)cc34)C(=O)NC2=O)cc1,0.19
3,COc1ccc(C2=C(c3cn(CCCn4ccnc4)c4ccc(Br)cc34)C(=O)NC2=O)cc1,0.11
4,O=C1NC(=O)C(c2cn(CCCn3ccnc3)c3ccccc23)=C1c1ccc(F)cc1,0.057
5,CC(C)(C)c1ccc(C2=C(c3cn(CCCn4ccnc4)c4ccc(Br)cc34)C(=O)NC2=O)cc1,0.42
6,COc1ccc2c(c1)c(C1=C(c3ccc(F)cc3)C(=O)NC1=O)cn2CCCn1ccnc1,0.15
7,COc1ccc(C2=C(c3cn(CCCn4ccnc4)c4ccc(C)cc34)C(=O)NC2=O)cc1,19.9
8,O=C1NC(=O)C(c2cn(CCCn3ccnc3)c3ccc(Br)cc23)=C1c1ccc2ccccc2c1,0.069
9,COc1ccc(C2=C(c3cn(CCCn4ccnc4)c4cc(C)ccc34)C(=O)NC2=O)cc1,0.097
10,COc1ccccc1C1=C(c2cn(CCCn3ccnc3)c3ccccc23)C(=O)NC1=O,19
11,O=C1NC(=O)C(c2cn(CCCn3ccnc3)c3ccccc23)=C1c1ccccc1[N+](=O)[O-],35.1
12,Cc1ccc2c(C3=C(c4ccccc4[N+](=O)[O-])C(=O)NC3=O)cn(CCCn3ccnc3)c2c1,0.1
13,COc1ccc(C2=C(c3cn(CCCn4ccnc4)c4ccc(Br)cc34)C(=O)NC2=O)cc1OC,0.051
14,O=C1NC(=O)C(c2cn(CCCn3ccnc3)c3ccc(Br)cc23)=C1c1cccs1,0.09
15,COc1ccc(C2=C(c3cn(CCCn4ccnc4)c4ccc(OC)cc34)C(=O)NC2=O)cc1,0.014
16,Cc1ccc2c(c1)c(C1=C(c3ccccc3C)C(=O)NC1=O)cn2CCCn1ccnc1,0.073
17,O=C1NC(=O)C(c2cn(CCCn3ccnc3)c3ccccc23)=C1c1ccc2ccccc2c1,9.19
18,COc1ccc2c(c1)c(C1=C(c3ccccc3C)C(=O)NC1=O)cn2CCCn1ccnc1,8.01
19,O=C1NC(=O)C(c2cn(CCCn3ccnc3)c3cc(Br)ccc23)=C1c1ccc2ccccc2c1,0.1
20,O=C1NC(=O)C(c2cn(CCCn3ccnc3)c3cc(Br)ccc23)=C1c1ccc(F)cc1,0.72
21,Cc1ccccc1C1=C(c2cn(CCCn3ccnc3)c3ccc(Br)cc23)C(=O)NC1=O,0.087
22,O=C1NC(=O)C(c2cn(CCCn3ccnc3)c3cc(Br)ccc23)=C1c1ccccc1F,0.06
23,Cc1ccccc1C1=C(c2cn(CCCn3ccnc3)c3cc(Br)ccc23)C(=O)NC1=O,0.14
24,Cc1ccc2c(c1)c(C1=C(c3ccccc3F)C(=O)NC1=O)cn2CCCn1ccnc1,47.1
25,O=C1NC(=O)C(c2cn(CCCn3ccnc3)c3ccc(Br)cc23)=C1c1ccc2c(c1)OCO2,0.044
26,COc1ccccc1C1=C(c2cn(CCCn3ccnc3)c3ccc(C)cc23)C(=O)NC1=O,0.065
27,COc1ccc2c(c1)c(C1=C(c3ccccc3F)C(=O)NC1=O)cn2CCCn1ccnc1,20.8

row,Structure (SMILES),IC50 [µM]
1,Cc1ccc(C2=C(c3cn(CCCn4ccnc4)c4cc(C)ccc34)C(=O)NC2=O)cc1,0.048
2,COc1ccc(C2=C(c3cn(CCCn4ccnc4)c4cc(Br)ccc34)C(=O)NC2=O)cc1,0.23
3,Cc1ccc(C2=C(c3cn(CCCn4ccnc4)c4ccccc34)C(=O)NC2=O)cc1,15.4
4,Cc1ccc2c(c1)c(C1=C(c3ccc(F)cc3)C(=O)NC1=O)cn2CCCn1ccnc1,23.3
5,Cc1ccc(C2=C(c3cn(CCCn4ccnc4)c4ccc(C)cc34)C(=O)NC2=O)cc1,7.75
6,Cc1ccc(C2=C(c3cn(CCCn4ccnc4)c4cc(Br)ccc34)C(=O)NC2=O)cc1,0.38
7,O=C1NC(=O)C(c2cn(CCCn3ccnc3)c3ccccc23)=C1c1c[nH]c2ccccc12,22.8
8,COc1ccc2c(c1)c(C1=C(c3ccc(C)cc3)C(=O)NC1=O)cn2CCCn1ccnc1,0.099
9,O=C1NC(=O)C(c2cn(CCCn3ccnc3)c3ccc(Br)cc23)=C1c1ccccc1[N+](=O)[O-],0.066
10,O=C1NC(=O)C(c2cn(CCCn3ccnc3)c3ccc(Br)cc23)=C1c1ccccc1F,0.032
11,O=C1NC(=O)C(c2cn(CCCn3ccnc3)c3ccc(Br)cc23)=C1c1cc(F)c(F)cc1F,0.12
12,Cc1ccc2c(C3=C(c4ccc5ccccc5c4)C(=O)NC3=O)cn(CCCn3ccnc3)c2c1,0.14
13,O=C1NC(=O)C(c2cn(CCCn3ccnc3)c3ccc(Br)cc23)=C1c1ccc(F)cc1,0.14
14,O=C1NC(=O)C(c2cn(CCCn3ccnc3)c3ccc(Br)cc23)=C1c1ccccc1,0.069
15,Cc1ccccc1C1=C(c2cn(CCCn3ccnc3)c3ccccc23)C(=O)NC1=O,26.7
16,COc1ccc2c(c1)c(C1=C(c3ccc4ccccc4c3)C(=O)NC1=O)cn2CCCn1ccnc1,0.059
17,COc1ccccc1C1=C(c2cn(CCCn3ccnc3)c3ccc(Br)cc23)C(=O)NC1=O,5.2
18,Cc1ccc2c(c1)c(C1=C(c3ccccc3[N+](=O)[O-])C(=O)NC1=O)cn2CCCn1ccnc1,8.15
19,COc1ccccc1C1=C(c2cn(CCCn3ccnc3)c3cc(Br)ccc23)C(=O)NC1=O,0.021
20,Cc1ccc2c(c1)c(C1=C(c3ccc4ccccc4c3)C(=O)NC1=O)cn2CCCn1ccnc1,5.14
21,COc1ccc(C2=C(c3cn(CCCn4ccnc4)c4ccccc34)C(=O)NC2=O)cc1,0.04
22,COc1ccc2c(c1)c(C1=C(c3ccccc3OC)C(=O)NC1=O)cn2CCCn1ccnc1,19.8
23,O=C1NC(=O)C(c2cn(CCCn3ccnc3)c3ccccc23)=C1c1ccccc1F,17.7
24,COc1ccc2c(c1)c(C1=C(c3ccccc3[N+](=O)[O-])C(=O)NC1=O)cn2CCCn1ccnc1,0.034
25,Cc1cc(C)c(C2=C(c3cn(CCCn4ccnc4)c4ccc(Br)cc34)C(=O)NC2=O)c(C)c1,0.11
26,O=C1NC(=O)C(c2cn(CCCn3ccnc3)c3ccc(Br)cc23)=C1c1cc(C(F)(F)F)cc(C(F)(F)F)c1,0.59
27,COc1ccc2c(C3=C(c4ccccc4F)C(=O)NC3=O)cn(CCCn3ccnc3)c2c1,0.011
